Reference: ChEMBL document CHEMBL1135404, “Identification of a nonsteroidal liver X receptor agonist through parallel array synthesis of tertiary amines” (J Med Chem, 2002)
The source made the active and inactive calls. The rule behind the calls is not given here.

Experiments:
[1] = target: T1, Oxysterols receptor LXR-alpha (Homo sapiens, UniProt Q13133); experiment: Ligand-dependent recruitment of steroid receptor co-activator 1 (SRC1) to Liver X receptor-alpha
T1 sequence (Q13133 whole entry): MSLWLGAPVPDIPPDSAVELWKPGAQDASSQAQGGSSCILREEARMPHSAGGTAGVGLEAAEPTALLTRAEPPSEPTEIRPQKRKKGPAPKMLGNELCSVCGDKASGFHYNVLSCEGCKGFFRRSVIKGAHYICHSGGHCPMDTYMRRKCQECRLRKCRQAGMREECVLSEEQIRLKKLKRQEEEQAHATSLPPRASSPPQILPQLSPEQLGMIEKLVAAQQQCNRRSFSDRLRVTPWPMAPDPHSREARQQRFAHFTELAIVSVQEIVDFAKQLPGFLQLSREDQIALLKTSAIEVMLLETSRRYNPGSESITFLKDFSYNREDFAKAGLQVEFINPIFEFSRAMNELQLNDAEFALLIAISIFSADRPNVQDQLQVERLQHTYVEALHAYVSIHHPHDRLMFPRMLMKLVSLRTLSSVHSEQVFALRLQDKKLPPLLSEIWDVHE

[2] = target: T2, Oxysterols receptor LXR-alpha (Homo sapiens) (UniProt Q13133)
T2 sequence (whole entry): T1 sequence (Q13133 whole entry)
Description: Relative efficacy compared to 24(S),25-epoxy cholesterol in LXR alpha-Gal4 receptor gene assay

[3] = target: T2, Oxysterols receptor LXR-alpha (Homo sapiens); remark: listed apart in the source
Description: Relative efficacy compared to 24(S),25-epoxy cholesterol in Liver X receptor-alpha ligand-sensing assay

[4] = target: T1, Oxysterols receptor LXR-alpha; experiment: Effective concentration in LXR alpha-Gal4 receptor gene assay
[5] = target: T2, Oxysterols receptor LXR-alpha (Homo sapiens); experiment: Effective concentration in LXR alpha-Gal4 receptor gene assay; inactive at 10 uM
[6] = Oral bioavailability after administration of a dose of 10 mg/kg; type: ADME, organism-based; settings: in vivo
[7] = the half-life (t1/2) in mice after a dose of 10 mg/kg; type: ADME, organism-based; design: dose 10 mg/kg; settings: mouse, in vivo
[8] = Cmax in mice after 10 mg/kg oral dose; type: ADME, organism-based; design: dose 10 mg/kg, route oral; settings: mouse, in vivo

With NC(=O)Cc1cccc(OCCCN(Cc2cccc(C(F)(F)F)c2Cl)CC(c2ccccc2)c2ccccc2)c1 the EC50 [1] was 45 nM, the RE [2] was 1.5 and the RE [3] was 1.1. It also gave an EC50 [4] of 425 nM.

For O=S(=O)(c1ccccc1)N(CC(F)(F)F)c1ccc(C(O)(C(F)(F)F)C(F)(F)F)cc1, the RE [2] was 2.5 and the RE [3] was 1.

Work on NC(=O)Cc1cccc(OCCCN(Cc2cccc(C(F)(F)F)c2)CC(c2ccccc2)c2ccccc2)c1 yielded an EC50 [1] of 85 nM, an RE [2] of 0.3 and an RE [3] of 0.7. For the same compound, the EC50 [4] was 650 nM.

For COc1ccc(CN(CCCOc2cccc(CC(N)=O)c2)CC(c2ccccc2)c2ccccc2)cc1, the IA [5] was “inactive”, the EC50 [1] was 260 nM and the RE [3] was 0.8.

In the case of COc1ccc(CN(CCCOc2cccc(CC(=O)O)c2)CC(c2ccccc2)c2ccccc2)cc1, the EC50 [1] is reported as 860 nM, the RE [2] is reported as 0.9 and the RE [3] is reported as 0.8. It also gave an EC50 [4] of 8000 nM.

With COc1ccc(CN(CCCOc2cccc(C(N)=O)c2)CC(c2ccccc2)c2ccccc2)cc1OC the EC50 [1] was 260 nM and the RE [3] was 0.2.

For COc1ccc(CN(CCCOc2cccc(CC(N)=O)c2)CC(c2ccccc2)c2ccccc2)c(F)c1, the EC50 [1] was 190 nM, the RE [2] was 0.4 and the RE [3] was 0.9. For the same compound, the EC50 [4] was 700 nM.

In the case of COc1ccc(CN(CCCOc2cccc(CC(N)=O)c2)CC(c2ccccc2)c2ccccc2)cc1F, the EC50 [1] is reported as 250 nM, the RE [2] is reported as 0.5 and the RE [3] is reported as 0.7. It also gave an EC50 [4] of 910 nM.

Work on COc1ccc(CN(CCCOc2cccc(CC(N)=O)c2)CC(c2ccccc2)c2ccccc2)c(OC)c1 yielded an EC50 [1] of 660 nM, an RE [2] of 0.6 and an RE [3] of 0.7. For the same compound, the EC50 [4] was 4000 nM.

O=C(O)Cc1cccc(OCCCN(Cc2cccc(C(F)(F)F)c2Cl)CC(c2ccccc2)c2ccccc2)c1 gave an EC50 [1] of 125 nM, an RE [2] of 1.7 and an RE [3] of 1. For the same compound, the EC50 [4] was 190 nM, the bioavailability [6] was 70% and the half-life [7] was 2 h. It also gave a Cmax [8] of 12700 ng/mL.

In the case of NC(=O)Cc1cccc(OCCCN(Cc2ccc(F)c(C(F)(F)F)c2)CC(c2ccccc2)c2ccccc2)c1, the EC50 [1] is reported as 85 nM, the RE [2] is reported as 0.4 and the RE [3] is reported as 0.9. The EC50 [4] was 945 nM.

In the case of C[C@H](CC[C@@H]1OC1(C)C)[C@H]1CC[C@H]2[C@@H]3CC=C4C[C@@H](O)CC[C@]4(C)[C@H]3CC[C@]12C [24(S),25-EPOXYCHOLESTEROL], the EC50 [1] is reported as 95 nM, the RE [2] is reported as 1 and the RE [3] is reported as 1. For the same compound, the EC50 [4] was 3000 nM.
